Source: patent US5688807A, “Method for treating 5HT2B receptor related conditions” (Eli Lilly and Company, priority 1995, dated 1997)
Structures can show the parent of a compound that is named as a salt. Where two headings read alike, the source gives them in different places.

Key:
distal colon = test: Functional in vitro assay: antagonism of serotonin contraction of rat distal colon longitudinal muscle; conditions: vs serotonin
Text: Functional In vitro Assay:
Sprague-Dawley rats (200-250g; Laboratory Supply, Indianapolis, Ind.) were sacrificed by cervical dislocation and 8 cm segment of distal colon was removed and washed in ice cold modified Kreb's solution of the following composition (millimolar): Nacl, 118.2; Kcl, 4.6; Cacl2. H2 O, 1.6; KH2 PO4, 1.2; MgSO4, 1.2; dextrose, 10.0; and NaHCO3, 24.8. The colon was mounted on a glass rod and the longitudinal muscle layer with attached myenteric plexi was removed and mounted in organ baths, containing above described Kreb's solution maintained at 37° C. and equilibrated with 95% O2 and 5% CO2. Tissues were placed under 2 g tension and allowed to stabilize for 1 hour. Isometric contractions were recorded as changes in grams of force using grass FT03 transducers and MI^2 - computerized dynograph system. Cumulative concentration-response curves for serotonin were obtained by a stepwise increase in concentration after washing out the preceding concentration for 10-15 minutes. Each agonist concentration remained in contact with the tissue for 5 minutes. Maximum response to each concentration was determined and digitized. EC50 values were taken as the concentration of agonist that produced half maximal contraction. After control responses were obtained, tissues were incubated with an appropriate concentration of antagonist for 15 minutes. Response to serotonin were then repeated in the presence of an antagonist. Concentration-response utilized only one concentration of antagonist per tissue. Apparent antagonist dissociation constants (KB) were determined for each concentration of antagonist according to the following equation:
KB =[B]/(dose ratio-1), where [B] is the concentration of the antagonist and dose ratio is the ED50 of the agonist in the presence of antagonist divided by the control ED50. The results were expressed as the negative logarithm of the KB (i.e., -log KB) (Br. J. Pharmacol. Methods 4:4165, (1980).
The functional in vitro method described supra. was used to test compounds of this invention. Values are expressed as pKi and pA2 (-log KB). The following table illustrates the results obtained when the compounds were tested using the Radioligand assay supra. (pKi) and the functional in vitro method described supra. (pA2)

[1] = biological target: T1, 5-HT2A receptor (rat jugular vein) (Rattus norvegicus, UniProt P14842); test: Antagonism of serotonin response in rat jugular vein (apparent antagonist dissociation constant); conditions: vs serotonin, ± standard error, read-out: 5-HT2A (Jugular) -log KB (converted)
T1 construct: rat jugular vein which is mediated by 5-HT2A receptors; from tissue; host or cells: rat jugular vein
T1 sequence (P14842 whole entry): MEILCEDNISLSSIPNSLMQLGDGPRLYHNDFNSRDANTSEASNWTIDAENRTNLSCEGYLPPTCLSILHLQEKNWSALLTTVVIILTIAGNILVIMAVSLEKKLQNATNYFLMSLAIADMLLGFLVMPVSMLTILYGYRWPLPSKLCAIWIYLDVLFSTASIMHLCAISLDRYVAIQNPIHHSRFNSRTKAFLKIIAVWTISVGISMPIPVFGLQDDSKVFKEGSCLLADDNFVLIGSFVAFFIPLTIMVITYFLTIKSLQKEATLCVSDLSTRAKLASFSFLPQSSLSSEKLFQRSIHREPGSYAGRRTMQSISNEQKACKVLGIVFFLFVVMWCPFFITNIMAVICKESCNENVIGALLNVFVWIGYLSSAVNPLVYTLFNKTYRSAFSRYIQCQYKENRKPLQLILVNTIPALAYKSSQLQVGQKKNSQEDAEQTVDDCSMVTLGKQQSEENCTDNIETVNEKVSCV
Protocol: Apparent antagonist dissociation constants (KB) were determined for each concentration of antagonist according to the following equation: […]
where [B] is the concentration of the antagonist and dose ratio is the ED50 of the agonist in the presence of the antagonist divided by the control ED50. Generally, parallel shifts in the concentration-response curves occurred in the presence of antagonists. The results were expressed as the negative logarithm of the KB (i.e., -log KB). Calculations were completed using known methods.
The values in Table II are expressed as -log KB ± standard error (number of data points). The 5-HT2B value represents the negative log of the concentration of an antagonist that will produce a two fold dextral shift in the concentration response curve to serotonin in the rat stomach fundus which is mediated by 5-HT2B receptors. Likewise, the 5-HT2A value represents the negative log of the concentration of an antagonist that will produce a two fold dextral shift in the concentration response curve to serotonin in the rat jugular vein which is mediated by 5-HT2A receptors. The blank values in Table II indicate that the compound was not tested in the indicated assay.

[2] = biological target: 5-HT2B receptor (rat stomach fundus) (Rattus norvegicus, UniProt P30994);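 further: isometric contraction of isolated male Wistar rat stomach fundus strips, serotonin concentration-response curves after antagonist incubation, KB from dose ratio of agonist potency versus control curve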
Chain of 5-HT2B receptor (rat stomach fundus) (P30994 whole entry): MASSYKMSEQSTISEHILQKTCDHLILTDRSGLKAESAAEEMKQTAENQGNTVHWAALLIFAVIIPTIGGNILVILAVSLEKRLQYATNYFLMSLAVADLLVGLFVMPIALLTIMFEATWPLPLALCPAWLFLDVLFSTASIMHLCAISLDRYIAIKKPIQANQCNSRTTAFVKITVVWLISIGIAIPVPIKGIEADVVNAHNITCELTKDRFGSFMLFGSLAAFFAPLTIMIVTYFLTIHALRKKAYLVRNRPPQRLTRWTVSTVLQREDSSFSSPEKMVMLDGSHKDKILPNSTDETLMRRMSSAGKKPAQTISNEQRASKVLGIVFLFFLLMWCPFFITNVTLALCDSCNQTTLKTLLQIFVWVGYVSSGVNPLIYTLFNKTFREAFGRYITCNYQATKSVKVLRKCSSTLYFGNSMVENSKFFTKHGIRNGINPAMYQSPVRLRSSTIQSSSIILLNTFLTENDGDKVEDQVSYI

rat 5-HT2B receptor = rat 5-HT2B receptor (Rattus norvegicus, UniProt P30994); test: biochemical; format: binding; conditions: Radioligand assay, Table III; for Ki: read-out: pKi (converted);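 on all read-outs here: displacement of [3H]5-HT from membranes of suspension cells carrying cloned rat 5-HT2B receptor, incubated 15 min at 37 °C or 2 h at 0 °C, filter-bound radioactivity counted by scintillation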
Chain of rat 5-HT2B receptor (P30994 whole entry): as above

Human 5-HT2B = biological target: T2, Human 5-HT2B (Homo sapiens, UniProt P41595); test: [3H]Serotonin radioligand binding, human 5-HT2B; conditions: Cell assays use Human Cells; read-out: Ki, 5HT2B Cells;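 further: competition of tritiated serotonin binding to cell membranes, bound radioactivity on filters counted by liquid scintillation, IC50 from logistic fits converted to Ki with the Cheng-Prusoff equation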
T2 construct: expressed in transfected cells
T2 sequence (P41595 whole entry): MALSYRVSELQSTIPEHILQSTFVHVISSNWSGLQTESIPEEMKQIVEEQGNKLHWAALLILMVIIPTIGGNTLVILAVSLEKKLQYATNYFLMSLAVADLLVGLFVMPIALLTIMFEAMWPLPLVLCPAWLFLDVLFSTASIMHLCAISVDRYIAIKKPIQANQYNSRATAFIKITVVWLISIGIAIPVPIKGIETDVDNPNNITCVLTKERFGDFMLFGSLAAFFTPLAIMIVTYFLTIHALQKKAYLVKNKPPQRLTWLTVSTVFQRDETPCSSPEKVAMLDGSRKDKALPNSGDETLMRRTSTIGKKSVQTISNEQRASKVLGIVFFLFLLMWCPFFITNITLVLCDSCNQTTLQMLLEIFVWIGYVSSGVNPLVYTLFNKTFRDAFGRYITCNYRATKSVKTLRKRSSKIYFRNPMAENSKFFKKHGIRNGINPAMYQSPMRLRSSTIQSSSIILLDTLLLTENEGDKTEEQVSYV

Human 5-HT2A = Human 5-HT2A (Homo sapiens, UniProt P28223); test: [125I]DOI radioligand binding, human 5-HT2A
Chain of Human 5-HT2A (P28223 whole entry): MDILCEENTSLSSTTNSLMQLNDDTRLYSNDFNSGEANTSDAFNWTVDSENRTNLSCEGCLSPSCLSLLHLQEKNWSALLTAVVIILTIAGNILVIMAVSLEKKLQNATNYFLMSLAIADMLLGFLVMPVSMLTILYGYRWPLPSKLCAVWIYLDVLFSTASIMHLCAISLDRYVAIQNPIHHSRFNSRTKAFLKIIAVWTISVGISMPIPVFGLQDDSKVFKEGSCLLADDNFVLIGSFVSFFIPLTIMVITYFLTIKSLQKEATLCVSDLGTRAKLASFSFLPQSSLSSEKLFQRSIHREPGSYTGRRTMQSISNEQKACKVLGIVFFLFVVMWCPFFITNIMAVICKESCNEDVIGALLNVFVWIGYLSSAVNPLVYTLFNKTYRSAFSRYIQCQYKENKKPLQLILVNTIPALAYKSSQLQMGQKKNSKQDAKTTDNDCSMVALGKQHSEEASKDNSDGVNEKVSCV

5HT2C = biological target: T3, 5HT2C (Homo sapiens, UniProt P28335); test: Human cell assay, 5HT2C cells; format: binding; conditions: Cell assays use Human Cells
T3 construct: expressed in transfected cells
T3 sequence (P28335 33-458): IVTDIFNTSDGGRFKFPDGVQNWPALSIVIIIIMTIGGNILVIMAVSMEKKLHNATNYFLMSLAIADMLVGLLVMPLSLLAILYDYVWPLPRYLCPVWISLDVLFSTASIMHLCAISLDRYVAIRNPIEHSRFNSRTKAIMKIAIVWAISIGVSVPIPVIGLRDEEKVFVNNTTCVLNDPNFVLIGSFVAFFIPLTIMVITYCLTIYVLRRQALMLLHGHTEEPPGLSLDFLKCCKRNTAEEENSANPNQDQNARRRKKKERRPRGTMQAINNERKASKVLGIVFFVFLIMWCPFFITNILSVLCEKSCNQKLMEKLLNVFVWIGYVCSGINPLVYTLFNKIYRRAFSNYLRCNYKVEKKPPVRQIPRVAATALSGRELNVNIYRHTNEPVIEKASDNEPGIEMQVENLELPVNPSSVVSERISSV
Protocol: Compounds of this invention were tested using substantially the procedure describe in the Radioligand assay supra. and are summarized in Table I infra. The values in Table I are expressed as Ki values calculated as described supra. The blank values in Table I indicate that the compound was not tested in the corresponding assay.

colon = test: In vivo inhibition of serotonin-induced colonic motility in anesthetized rats; conditions: Rattus norvegicus, iv; anesthetized Sprague-Dawley rats
Protocol: Sprague-Dawley Rats (250-300 g) were fasted overnight. The rats were anesthetized with urethane ([…]) delivered intraperitoneally. The abdominal cavity was opened and strain guage transducers were sewn on the antimesenteric border of the colon. The transducers were oriented to record circular muscle contractions. The animal body temperature was maintained by a heating pad. An intravenous catheter was inserted into the jugular vein for drug administration. The carotid blood pressure was also monitored. Output of the strain guage transducers was graphed on a Beckman Dynograph. Baseline motility was monitored for 30 minutes. At the end of the 30 minute period, a vehicle control dose was administered and motility was recorded for an additional 15 minutes. A serotonin dose response was developed. Successively higher doses of serotonin were administered at 15 minute intervals. An ED50 dose was calculated, which was the dose producing half maximal contraction. In antagonist experiments, historical ED50 dose was administered to validate the experimental set up. Next, a dose of antagonist was given. The motility was monitored for 15 minutes. […] Motility was evaluated by measuring the number of contractions and multiplying them by the amplitude of contractions over a set time period to provide a Motility Index. The percent inhibition was calculated from the vehicle (no antagonist) treated group. […]

[3] = rat stomach fundus, vs serotonin, ± standard error, read-out: 5-HT2B (Fundus) -log KB (converted)

Row | Compound | pA2 (-log KB) (distal colon) | Kb [1] | Kb [2, 3] | further results
1 | Brc1ccc2[nH]c3c(c2c1)CCNC3 [6-bromo-1,2,3,4-tetrahydro-9H-pyrido[3,4b]-indole] | 8.2 |  |  | 
2 | CCc1ccc2[nH]c3c(c2c1)CCNC3Cc1ccc(OC)c(OC)c1 (stereo not shown) [Example 17, 6-ethyl-1,2,3,4-tetrahydro-1-[(3,4-dimethoxyphenyl)methyl]-9H-pyrido[3,4b]indole] | 6.2 | 21.9 nM | 0.347 nM | 
3 | COc1ccc(CC2NCCc3c2[nH]c2ccc(C)cc32)c(OC)c1OC.Cl (stereo not shown) [Example 22, 6-methyl-1-[(2,3,4-trimethoxyphenyl)-methyl]-1,2,3,4-tetrahydro-9H-pyrido[3,4-b]indole hydrochloride] | 4.8 |  | 6.17 nM | Ki (rat 5-HT2B receptor): 5.37 nM
4 | COc1ccc(CC2NCCc3c2[nH]c2ccc(C)cc32)c(Cl)c1OC (stereo not shown) [Example 36, 6-methyl-1-[(2-chloro-3,4-dimethoxyphenyl)-methyl]-1,2,3,4-tetrahydro-9H-pyrido[3,4-b]indole hydrochloride] |  | 7.24 nM |  | Kb ([2]; read-out: 5-HT2B (Fundus) -log KB (converted)): 0.158 nM
5 | Clc1ccc2[nH]c3c(c2c1)CCNC3 [6-chloro-1,2,3,4-tetrahydro-9H-pyrido[3,4b]-indole] | 7.2 |  |  | 
6 | Cc1ccc2[nH]c3c(c2c1)[C@@H]1CCCC[C@H]1NC3Cc1cccc2ccccc12 (stereo partly drawn) [Example 105, Trans-10-methyl-6-(1-naphthylmethyl)-2,3,4,4a,5,6,7,11c-octahydro-1H-indolo[2,3-c]quinoline, hydrochloride] |  |  |  | Ki (Human 5-HT2B): 22.1 nM; Ki (Human 5-HT2A): 86.5 nM; Ki (5HT2C): 195 nM
7 | COc1ccc(C(C)C2NCCc3c2[nH]c2cc(C)c(C)cc32)cc1OC (racemic) [Example 41, (±) 6,7-dimethyl-1-[(3,4-dimethoxyphenyl)-1-ethyl]-1,2,3,4-tetrahydro-9H-pyrido[3,4-b]indole (Z)-2-butenedioate] | 7.2 | 11.5 nM | 0.155 nM | Ki (rat 5-HT2B receptor): 6.46 nM
8 | Cc1ccc2c3c([nH]c2c1Cl)CNCC3 [Example 76, 7-methyl-8-chloro-1,2,3,4-tetrahydro-9H-pyrido[3,4b]-indole] | 8.3 |  |  | 
9 | COc1ccc(CC2NCCc3c2[nH]c2ccc(C)cc32)cc1OC (stereo not shown) [Example 20, 6-methyl-1,2,3,4-tetrahydro-1-[(3,4-dimethoxyphenyl)methyl]-9H-pyrido[3,4b]indole hydrochloride] | 7.8 | 61.7 nM |  | 
10 | Cc1cc(Br)c2[nH]c3c(c2c1)CCNC3 [Example 73, 6-methyl-8-bromo-1,2,3,4-tetrahydro-9H-pyrido[3,4b]-indole] | 8.9 |  |  | pKi (rat 5-HT2B receptor): 7.85; ED50 (colon): 3.2 mg/kg
11 | Cc1ccc2[nH]c3c(c2c1)CCNC3Cc1cccc2ccccc12 (racemic) [Example 51, (±) 6-methyl-1-(1-naphthalenylmethyl)-1,2,3,4-tetrahydro-9H-pyrido [3,4-b]indole hydrochloride] |  | 8.51 nM | 0.178 nM | 
12 | COc1ccc(CC2NCCc3c2[nH]c2cc(C)c(C)cc32)cc1OC (stereo not shown) [Example 16, 6,7-dimethyl-1,2,3,4-tetrahydro-1-[(3,4-dimethoxyphenyl)methyl]-9H-pyrido[3,4b]indole] |  | 7.08 nM |  | Kb [2]: 0.195 nM
13 | Cc1ccc2c3c([nH]c2c1C)CNCC3 [Example 72, 7,8-dimethyl-1,2,3,4-tetrahydro-9H-pyrido[3,4b]-indole] | 7.5 |  |  | pKi (rat 5-HT2B receptor): 7.8
14 | CCCOc1ccc(CC2NCCc3c2[nH]c2ccc(C)cc32)cc1OC (stereo not shown) [Example 31, 6-methyl-1-[(3-methoxy-4-propoxyphenyl)-methyl]-1,2,3,4-tetrahydro-9H-pyrido[3,4-b]indole] |  | 51.3 nM | 1.12 nM | 
15 | Cc1ccc2[nH]c3c(c2c1)[C@@H]1CCCC[C@H]1NC3 (relative stereo) [Example 95, Trans-10-methyl-2,3,4,4a,5,6,7,11c-octahydro-1H-indolo[2,3c]quinoline, hydrochloride] |  |  |  | Ki (Human 5-HT2B): 840 nM; Ki (Human 5-HT2A): 3440 nM; Ki (5HT2C): 2640 nM
16 | COc1cc2c(cc1OC)CC1(CC2)N[C@@H]2CCCC[C@H]2c2c1[nH]c1ccc(C)cc21 (stereo partly drawn) [Example 107, Trans-spiro-6,6-[2-(3,4-dimethoxy)-1,2,3,4-tetrahydronaphthyl]-10-methyl-2,3,4,4a,5,6,7,11a-octahydro-1H-indolo[2,3-c]quinidine, hydrochloride] |  |  |  | Ki (Human 5-HT2B): 178 nM; Ki (Human 5-HT2A): 363 nM; Ki (5HT2C): 325 nM
